Reference: BindingDB's records for doi:10.1021/jm0010365 (Universita' Degli Studi Di Salerno, 2001)

Assay: Inhibition of HIV-1 Mutant HIV-1 RT enzymes containing the single amino acid substitution V179D

Compound | Ki [nM]
Cc1cc2nc(OCCNC(=S)Nc3ccc(Br)cn3)c3cccn3c2cc1C [1-(5-Bromo-pyridin-2-yl)-3-[2-(7,8-dimethyl-pyrrolo[1,2-a]quinoxalin-4-yloxy)-ethyl]-thiourea] | 800
S=C(NCCOc1nc2cc(Cl)ccc2n2cccc12)Nc1ccc(Br)cn1 [1-(5-Bromo-pyridin-2-yl)-3-[2-(7-chloro-pyrrolo[1,2-a]quinoxalin-4-yloxy)-ethyl]-thiourea] | 70
